Measurements as given in patent US9475779B2, “Substituted bicyclic dihydropyrimidinones and their use as inhibitors of neutrophil elastase activity” (priority 2014, dated 2016).
Values after ≈ are worked out from the molar mass of the structure shown. Read-outs that look alike come from different tables or passages of the source. Values belong to the molecule of their own block, whether it stands above or below them.

Key:
[1] = Metabolic stability with human liver microsomes; format: in vitro ADME; conditions: human, pooled human liver microsomes, pH 7.6, pooled human liver microsomes, 1 μM test compound, 37° C.; read-out: t1/2 INVITRO
in vitro = in vitro ADME; conditions: human, pH 7.2, 37° C.; for Papp A→B at 10 μM: Caco-2, pH 7.2, Caco-2, apical-to-basal, read-out: PEAB; for Papp B→A at 10 μM: Caco-2, pH 7.2, Caco-2, basal-to-apical, read-out: PEBA
physchem = format: physicochemical; conditions: McIlvaine buffer pH 6.8 containing 2.5% DMSO, pH 6.8, aqueous buffer, kinetic from dmso stock, McIlvaine buffer pH 6.8, 2.5% DMSO, 24 h
neutrophil elastase [2] = molecular target: T1, neutrophil elastase (Homo sapiens (Human), UniProt P08246); test: biochemical; format: biochemical
T1 sequence (P08246 whole entry, looked up): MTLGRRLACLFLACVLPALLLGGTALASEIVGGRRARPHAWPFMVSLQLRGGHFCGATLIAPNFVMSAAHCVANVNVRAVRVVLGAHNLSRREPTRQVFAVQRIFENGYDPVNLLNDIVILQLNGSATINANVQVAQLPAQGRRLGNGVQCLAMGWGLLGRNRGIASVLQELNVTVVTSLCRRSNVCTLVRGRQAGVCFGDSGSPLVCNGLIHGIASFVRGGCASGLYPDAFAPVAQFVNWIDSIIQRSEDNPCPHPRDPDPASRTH

neutrophil elastase [3] = molecular target: T1, neutrophil elastase; test: biochemical
[4] = Neutrophil Elastase assay, substrate MeOSuc-Ala-Ala-Pro-Val-AMC, read-out: IC50

half-life at 1 μM [1]: > 2.17 h
Papp A→B at 10 μM (in vitro): 67 ×10⁻⁶ cm/s
Papp B→A at 10 μM (in vitro): 87 ×10⁻⁶ cm/s
solubility at 24 h (physchem): 65 µg/mL (≈ 143 µM)
Compound: CC(O)c1cc(C#N)ccc1C1C2=C(CCC2=O)N(c2cccc(C(F)(F)F)c2)C(=O)N1C (centres unmarked) [Example A.3, 3-(1-Hydroxy-ethyl)-4-[3-methyl-2,5-dioxo-1-(3-trifluoromethyl-phenyl)-2,3,4,5,6,7-hexahydro-1H-cyclopentapyrimidin-4-yl]-benzonitrile]

Compound: CNC(=O)N1C(=O)N(c2cc(C(F)(F)F)ccn2)C2=C(C(=O)CC2)C1c1ccc(C#N)cc1S(C)(=O)=O (centres unmarked) [D.4.4]
IC50 (neutrophil elastase [2]; read-out: IC50): < 1 nM
EC50 (neutrophil elastase [3]): 2 nM
half-life at 1 μM [1]: > 2.17 h
Papp A→B at 10 μM (in vitro): 3.1 ×10⁻⁶ cm/s
Papp B→A at 10 μM (in vitro): 60 ×10⁻⁶ cm/s

Compound: CCS(=O)(=O)c1cc(C#N)ccc1C1C2=C(CCC2=O)N(c2ccnc(C(F)(F)F)c2)C(=O)N1C (single isomer, unassigned) [Example D.3A, 3-Ethanesulfonyl-4-[3-methyl-2,5-dioxo-1-(2-trifluoromethyl-pyridin-4-yl)-2,3,4,5,6,7-hexahydro-1H-cyclopentapyrimidin-4-yl]-benzonitrile]
IC50 (neutrophil elastase [2]; IC50): 2810 nM

Compound: CN1C(=O)N(c2cc(C(F)(F)F)ccn2)C2=C(C(=O)CC2)C1c1ccc(C#N)cc1S(C)(=O)=O (centres unmarked) [D.3.2]
IC50 (neutrophil elastase [2]; read-out: IC50): 9.5 nM

Compound: CN1C(=O)N(c2cccc(C(F)(F)F)c2)C2=C(C(=O)CC2)C1c1ccc(C#N)cc1S(=O)(=O)CCCO (single isomer, unassigned) [Example B.1.3A]
half-life at 1 μM [1]: 1.52 h
Papp A→B at 10 μM (in vitro): 9.9 ×10⁻⁶ cm/s
Papp B→A at 10 μM (in vitro): 130 ×10⁻⁶ cm/s
solubility at 24 h (physchem): 93 µg/mL (≈ 174 µM)

IC50 (neutrophil elastase [2]; read-out: IC50): 8.9 nM
Compound: CC[S+]([O-])c1cc(C#N)ccc1C1NC(=O)N(c2cccc(C(F)(F)F)c2)C2=C1C(=O)CC2 (single isomer, unassigned) [Example C.4.2, 4-[2,5-Dioxo-1-(3-trifluoromethyl-phenyl)-2,3,4,5,6,7-hexahydro-1H-cyclopentapyrimidin-4-yl]-3-ethanesulfinyl-benzonitrile]

Compound: CCS(=O)(=O)c1cc(C#N)ccc1C1C2=C(CCC2=O)N(c2cccc(C(F)F)c2)C(=O)N1C(=O)NC (centres unmarked) [Example D.7, 4-(4-Cyano-2-ethanesulfonyl-phenyl)-1-(3-difluoromethyl-phenyl)-2,5-dioxo-1,2,4,5,6,7-hexahydro-cyclopentapyrimidine-3-carboxylic acid methylamide]
IC50 (neutrophil elastase [2]; read-out: IC50): < 1 nM

Compound: CS(=O)(=O)c1cc(C#N)ccc1C1NC(=O)N(c2cncc(C(F)(F)F)c2)C2=C1C(=O)CC2 (centres unmarked) [D.2.1]
IC50 (neutrophil elastase [2]; [4]): 60 nM

Compound: CCS(=O)(=O)c1cc(C#N)ccc1C1NC(=O)N(c2cccc(C(F)F)c2)C2=C1C(=O)CC2 (racemic) [Example D.5, 4-[1-(3-Difluoromethyl-phenyl)-2,5-dioxo-2,3,4,5,6,7-hexahydro-1H-cyclopentapyrimidin-4-yl]-3-ethanesulfonyl-benzonitrile]
IC50 (neutrophil elastase [2]; read-out: IC50): 5.5 nM

Compound: CCNC(=O)N1C(=O)N(c2cncc(Cl)c2)C2=C(C(=O)CC2)C1c1ccc(C#N)cc1S(C)(=O)=O (centres unmarked) [D.4.9]
IC50 (neutrophil elastase [2]; [4]): < 1 nM

Compound: CCS(=O)(=O)c1cc(C#N)ccc1C1C2=C(CCC2=O)N(c2cccc(C(F)F)c2)C(=O)N1C (centres unmarked) [Example D.6, 4-[1-(3-Difluoromethyl-phenyl)-3-methyl-2,5-dioxo-2,3,4,5,6,7-hexahydro-1H-cyclopentapyrimidin-4-yl]-3-ethanesulfonyl-benzonitrile]
IC50 (neutrophil elastase [2]; read-out: IC50): < 1 nM

Compound: CCS(=O)(=O)c1cc(C#N)ccc1C1C2=C(CCC2=O)N(c2ccnc(C(F)(F)F)c2)C(=O)N1C (racemic) [Example D.3, 3-Ethanesulfonyl-4-[3-methyl-2,5-dioxo-1-(2-trifluoromethyl-pyridin-4-yl)-2,3,4,5,6,7-hexahydro-1H-cyclopentapyrimidin-4-yl]-benzonitrile]
IC50 (neutrophil elastase [2]; read-out: IC50): 4 nM

Compound: CCNC(=O)N1C(=O)N(c2cncc(Br)c2)C2=C(C(=O)CC2)C1c1ccc(C#N)cc1S(C)(=O)=O (centres unmarked) [D.4.7]
IC50 (neutrophil elastase [2]; [4]): < 1 nM
